A short description of experiment [1]: Cytotoxicity against BCA1 cells by SRB assay. Particulars: read-out: ED50 (the source's name). The class given is functional.
The subject of experiment [2] is Plasmodium falciparum. Description: Antimalarial activity against multidrug-resistant Plasmodium falciparum K1 by [3H]hypoxanthine uptake. It is filed as functional, organism-based.

≈ marks a conversion by molar mass, not a printed value.

Among the data in ChEMBL document CHEMBL1158022, “Norpregnane glycosides from a Thai soft coral, Scleronephthya pallida” (J Nat Prod, 1999) are EC50 values, retold here.

Take `C=C[C@H]1CC[C@H]2[C@@H]3CCc4cc(O[C@H]5O[C@H](C)[C@H](O)[C@H](O)[C@H]5O)ccc4[C@H]3CC[C@]12C`: the EC50 in experiment [1] was determined as 10 µg/mL (≈ 23.3 µM); in experiment [2] (Plasmodium falciparum, K1, read-out: EC50) it was 1.5 µg/mL (≈ 3.5 µM).

Regarding `CCN(CC)CCCC(C)Nc1ccnc2cc(Cl)ccc12.O=P(O)(O)O.O=P(O)(O)O` (stereo not drawn) [CHLOROQUINE PHOSPHATE], the EC50 in experiment [2] stood at 1.6 ×10⁻⁷ g/ml.
